In patent US10798941B2, “Microbiocidal oxadiazole derivatives” (SYNGENTA PARTICIPATIONS AG, priority 2016, dated 2020) one finds inhibition of growth and pest or weed control data, which are given here for 23 compounds.

Bounds are passed on as bounds.

For assay [1], the system named is Glomerella Lagenarium (Colletotrichum Lagenarium). Kind of assay: Glomerella lagenarium (Colletotrichum lagenarium) liquid culture / cucumber / preventative (anthracnose). Format: cell-based. Conditions: Colletotrichum orbiculare; 20 ppm in the applied formulation; liquid culture in PDB, 24° C., inhibition of growth measured photometrically 3 to 4 days after application, vs untreated; read-out: disease control. Here is the method:
Mycelia fragments or conidia suspensions of a fungus prepared either freshly from liquid cultures of the fungus or from cryogenic storage, are directly mixed into nutrient broth. DMSO solutions of the test compound (max. 10 mg/ml) are diluted with 0.025% Tween20 by a factor of 50 and 10 μl of this solution is pipetted into a microtiter plate (96-well format). The nutrient broth containing the fungal spores/mycelia fragments is then added to give an end concentration of the tested compound. The test plates are incubated in the dark at 24° C. and 96% relative humidity. The inhibition of fungal growth is determined photometrically after 2 to 7 days, depending on the pathosystem, and percent antifungal activity relative to the untreated check is calculated.
Conidia of the fungus from cryogenic storage are directly mixed into nutrient broth (PDB—potato dextrose broth). After placing a (DMSO) solution of test compound into a microtiter plate (96-well format), the nutrient broth containing the fungal spores is added.
The following compounds at 20 ppm in the applied formulation give at least 80% disease control in this test when compared to untreated control under the same conditions, which show extensive disease development.

Assay [2] has as its system Puccinia recondita f. Sp. Tritici. Nature of the assay: Puccinia recondita f. sp. tritici / wheat / leaf disc curative (brown rust). It is filed as in vivo. To be noted: foliar, 144 h, 200 ppm in the applied formulation, wheat leaf segments cv. Kanzler, applied 1 day after inoculation, assessed 6 to 8 days after application, vs untreated, read-out: disease control. As for the experimental part: (§1) Leaf disks or leaf segments of various plant species are cut from plants grown in a greenhouse. The cut leaf disks or segments are placed in multiwell plates (24-well format) onto water agar. The leaf disks are sprayed with a test solution before (preventative) or after (curative) inoculation. Compounds to be tested are prepared as DMSO solutions (max. 10 mg/ml) which are diluted to the appropriate concentration with 0.025% Tween20 just before spraying. The inoculated leaf disks or segments are incubated under defined conditions (temperature, relative humidity, light, etc.) according to the respective test system. A single evaluation of disease level is carried out 3 to 14 days after inoculation, depending on the pathosystem. Percent disease control relative to the untreated check leaf disks or segments is then calculated.
Wheat leaf segments cv. Kanzler are placed on agar in multiwell plates (24-well format). The leaf segments are then inoculated with a spore suspension of the fungus. Plates were stored in darkness at 19° C. and 75% relative humidity. The formulated test compound diluted in water was applied 1 day after inoculation. The leaf segments were incubated at 19° C. and 75% relative humidity under a light regime of 12 hours light/12 hours darkness in a climate cabinet and the activity of a compound was assessed as percent disease control compared to untreated when an appropriate level of disease damage appears in untreated check leaf segments (6 to 8 days after application).
(§2) The following compounds at 200 ppm in the applied formulation give at least 80% disease control in this test when compared to untreated control leaf disks under the same conditions, which show extensive disease development.

Assay [3] shares this test system. Kind of assay: Puccinia recondita f. sp. tritici / wheat / leaf disc preventative (brown rust). It is filed as in vivo. To be noted: foliar, 168 h, 200 ppm in the applied formulation, wheat leaf segments cv. Kanzler, preventative, inoculated 1 day after application, assessed 7 to 9 days after application, vs untreated, read-out: disease control. Here is the method: as §1
Wheat leaf segments cv. Kanzler were placed on agar in multiwell plates (24-well format) and sprayed with the formulated test compound diluted in water. The leaf disks were inoculated with a spore suspension of the fungus 1 day after application. The inoculated leaf segments were incubated at 19° C. and 75% relative humidity (rh) under a light regime of 12 hours light/12 hours darkness in a climate cabinet and the activity of a compound was assessed as percent disease control compared to untreated when an appropriate level of disease damage appears in untreated check leaf segments (7 to 9 days after application).
as §2

As to `FC(F)(F)c1nc(-c2ccc(Cn3ncnc3C(F)(F)F)cc2)no1` [Compound 1.38, 5-(trifluoromethyl)-3-[4-[[5-(trifluoromethyl)-1,2,4-triazol-1-yl]methyl]phenyl]-1,2,4-oxadiazole], the inhibition of growth at 20 ppm in assay [1] was at least 80%. For the same compound, in assay [2], the pest or weed control at 200 ppm was at least 80%.
As for `FC(F)(F)c1nc(-c2ccc(Cn3cc(I)cn3)cc2)no1` [Compound 1.44, 3-[4-[(4-iodopyrazol-1-yl)methyl]phenyl]-5-(trifluoromethyl)-1,2,4-oxadiazole], the inhibition of growth at 20 ppm in assay [1] is at least 80%. Besides, the pest or weed control at 200 ppm in assay [2] and in assay [3] was at least 80% throughout.
`N#Cc1ncn(Cc2ccc(-c3noc(C(F)(F)F)n3)cc2)c1C#N` [Compound 1.45, 1-[[4-[5-(trifluoromethyl)-1,2,4-oxadiazol-3-yl]phenyl]methyl]imidazole-4,5-dicarbonitrile]: the inhibition of growth at 20 ppm in assay [1] was at least 80%. Also, the pest or weed control at 200 ppm in assay [2] and in assay [3] was at least 80% in each case.
On to `FC(F)(F)c1nc(-c2ccc(Cn3cnc(Cl)c3Cl)cc2)no1` [Compound 1.46, 3-[4-[(4,5-dichloroimidazol-1-yl)methyl]phenyl]-5-(trifluoromethyl)-1,2,4-oxadiazole], for which the inhibition of growth at 20 ppm in assay [1] is at least 80%. In addition, the pest or weed control at 200 ppm in assay [2] and in assay [3] was at least 80% in each case.
For the compound `Fc1ccc2ccn(Cc3ccc(-c4noc(C(F)(F)F)n4)cc3)c2c1` [Compound 1.54, 3-[4-[(6-fluoroindol-1-yl)methyl]phenyl]-5-(trifluoromethyl)-1,2,4-oxadiazole], the inhibition of growth at 20 ppm in assay [1] was at least 80%. Besides, the pest or weed control at 200 ppm in assay [2] was at least 80%.
Regarding `FC(F)(F)c1cnn(Cc2ccc(-c3noc(C(F)(F)F)n3)cc2)c1` [Compound 1.55, 5-(trifluoromethyl)-3-[4-[[4-(trifluoromethyl)pyrazol-1-yl]methyl]phenyl]-1,2,4-oxadiazole], the inhibition of growth at 20 ppm in assay [1] is at least 80%. Also, the pest or weed control at 200 ppm in assay [2] and in assay [3] was at least 80% each time.
Consider `O=Cc1cccn1Cc1ccc(-c2noc(C(F)(F)F)n2)cc1` [Compound 1.62, 1-[[4-[5-(trifluoromethyl)-1,2,4-oxadiazol-3-yl]phenyl]methyl]pyrrole-2-carbaldehyde], for which the inhibition of growth at 20 ppm in assay [1] was at least 80%. The pest or weed control at 200 ppm in assay [2] and in assay [3] was at least 80% in each case.
In the case of `FC(F)(F)c1nc(-c2ccc(Cn3cc(Cl)cn3)cc2)no1` [Compound 1.67, 3-[4-[(4-chloropyrazol-1-yl)methyl]phenyl]-5-(trifluoromethyl)-1,2,4-oxadiazole], the inhibition of growth at 20 ppm in assay [1] was at least 80%. For the same compound, the pest or weed control at 200 ppm in assay [2] and in assay [3] was at least 80% in each case.
Consider `O=Cc1nccn1Cc1ccc(-c2noc(C(F)(F)F)n2)cc1` [Compound 1.71, 1-[[4-[5-(trifluoromethyl)-1,2,4-oxadiazol-3-yl]phenyl]methyl]imidazole-2-carbaldehyde], for which, in assay [2], the pest or weed control at 200 ppm was at least 80%.
With `N#Cc1cnn(Cc2ccc(-c3noc(C(F)(F)F)n3)cc2)c1` [Compound 1.76, 1-[[4-[5-(trifluoromethyl)-1,2,4-oxadiazol-3-yl]phenyl]methyl]pyrazole-4-carbonitrile], the inhibition of growth at 20 ppm in assay [1] was at least 80%. The pest or weed control at 200 ppm in assay [2] and in assay [3] was at least 80% each time.
Take `FC(F)(F)c1nc(-c2ccc(Cn3cc(Br)cn3)cc2)no1` [Compound 1.77, 3-[4-[(4-bromopyrazol-1-yl)methyl]phenyl]-5-(trifluoromethyl)-1,2,4-oxadiazole]: in assay [1], the inhibition of growth at 20 ppm is at least 80%. For the same compound, the pest or weed control at 200 ppm in assay [2] is at least 80%.
Consider `Cc1cn(Cc2ccc(-c3noc(C(F)(F)F)n3)cc2)c(C)n1` [Compound 1.78, 3-[4-[(2,4-dimethylimidazol-1-yl)methyl]phenyl]-5-(trifluoromethyl)-1,2,4-oxadiazole], for which the pest or weed control at 200 ppm in assay [2] was at least 80%.
Take `CCOC(=O)c1c(C)ncn1Cc1ccc(-c2noc(C(F)(F)F)n2)cc1` [Compound 1.80, ethyl 5-methyl-3-[[4-[5-(trifluoromethyl)-1,2,4-oxadiazol-3-yl]phenyl]methyl]imidazole-4-carboxylate]: in assay [1], the inhibition of growth at 20 ppm is at least 80%. Moreover, the pest or weed control at 200 ppm in assay [2] and in assay [3] was at least 80% each time.
As for `Cc1nccn1Cc1ccc(-c2noc(C(F)(F)F)n2)cc1F` [Compound 1.123, 3-[3-fluoro-4-[(2-methylimidazol-1-yl)methyl]phenyl]-5-(trifluoromethyl)-1,2,4-oxadiazole], the pest or weed control at 200 ppm in assay [2] and in assay [3] was at least 80% each time.
As for `Fc1cc(-c2noc(C(F)(F)F)n2)ccc1Cn1cnc2ccccc21` [Compound 1.126, 3-[4-(benzimidazol-1-ylmethyl)-3-fluoro-phenyl]-5-(trifluoromethyl)-1,2,4-oxadiazole], the inhibition of growth at 20 ppm in assay [1] is at least 80%. The pest or weed control at 200 ppm in assay [3] is at least 80%.
On to `Cc1cn(Cc2ccc(-c3noc(C(F)(F)F)n3)cn2)c(C)n1` [Compound 1.134, 3-[6-[(2,4-dimethylimidazol-1-yl)methyl]-3-pyridyl]-5-(trifluoromethyl)-1,2,4-oxadiazole], for which the pest or weed control at 200 ppm in assay [2] was at least 80%.
Consider `FC(F)(F)c1nc(-c2ccc(Cn3ccnc3)nc2)no1` [Compound 1.141, 3-[6-(imidazol-1-ylmethyl)-3-pyridyl]-5-(trifluoromethyl)-1,2,4-oxadiazole], for which the pest or weed control at 200 ppm in assay [2] and in assay [3] was at least 80% throughout.
`FC(F)(F)c1nc(-c2ccc(Cn3cncn3)nc2)no1` [Compound 1.143, 3-[6-(1,2,4-triazol-1-ylmethyl)-3-pyridyl]-5-(trifluoromethyl)-1,2,4-oxadiazole]: the inhibition of growth at 20 ppm in assay [1] was at least 80%. Further, the pest or weed control at 200 ppm in assay [2] was at least 80%.
On to `Cc1cn(Cc2ccc(-c3noc(C(F)(F)F)n3)cc2F)c(C)n1` [Compound 1.145, 3-[4-[(2,4-dimethylimidazol-1-yl)methyl]-3-fluoro-phenyl]-5-(trifluoromethyl)-1,2,4-oxadiazole], for which the pest or weed control at 200 ppm in assay [2] and in assay [3] was at least 80% in each case.
For the compound `O=C(NCC1CC1)c1cnn(Cc2ccc(-c3noc(C(F)(F)F)n3)cc2)c1` [Compound 1.249, N-(cyclopropylmethyl)-1-[[4-[5-(trifluoromethyl)-1,2,4-oxadiazol-3-yl]phenyl]methyl]pyrazole-4-carboxamide], the inhibition of growth at 20 ppm in assay [1] is at least 80%. For the same compound, the pest or weed control at 200 ppm in assay [3] was at least 80%.
For `N#Cc1ncnn1Cc1ccc(-c2noc(C(F)(F)F)n2)nc1` [Compound 1.258, 2-[[6-[5-(trifluoromethyl)-1,2,4-oxadiazol-3-yl]-3-pyridyl]methyl]-1,2,4-triazole-3-carbonitrile], in assay [1], the inhibition of growth at 20 ppm was at least 80%. The pest or weed control at 200 ppm in assay [2] is at least 80%.
For the compound `CNC(=O)c1cn(Cc2ccc(-c3noc(C(F)(F)F)n3)cc2)nn1` [Compound 1.272, N-methyl-1-[[4-[5-(trifluoromethyl)-1,2,4-oxadiazol-3-yl]phenyl]methyl]triazole-4-carboxamide], the pest or weed control at 200 ppm in assay [2] is at least 80%.
In the case of `CON=C1CCN(Cc2ccc(-c3noc(C(F)(F)F)n3)cc2)CC1` [Compound 1.293, N-methoxy-1-[[4-[5-(trifluoromethyl)-1,2,4-oxadiazol-3-yl]phenyl]methyl]piperidin-4-imine], the pest or weed control at 200 ppm in assay [2] was at least 80%.
